A value given as a limit tells only on which side of the number the result lay.

In this assay the target is T1, human CXCR3 (N-delta 4) (Homo sapiens, UniProt P49682).
T1 construct: CD8 leader; Flag tag; expressed in transfected cells; membranes used
T1 sequence (P49682 5-368 limits assumed): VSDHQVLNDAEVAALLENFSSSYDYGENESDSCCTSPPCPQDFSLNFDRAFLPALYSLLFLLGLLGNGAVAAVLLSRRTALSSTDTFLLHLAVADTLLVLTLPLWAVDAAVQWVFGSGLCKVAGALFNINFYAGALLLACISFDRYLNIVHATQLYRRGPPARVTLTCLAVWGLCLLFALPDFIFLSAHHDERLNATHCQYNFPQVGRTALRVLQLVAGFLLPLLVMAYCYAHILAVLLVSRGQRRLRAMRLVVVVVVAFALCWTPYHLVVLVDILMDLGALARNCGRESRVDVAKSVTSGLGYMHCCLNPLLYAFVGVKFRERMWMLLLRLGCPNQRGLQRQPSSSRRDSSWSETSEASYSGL
As to the kind of experiment: Human CXCR3 (N-delta 4) scintillation proximity assay (SPA), [125I] IP-10 binding. The note with it: IC50 rating; Ba/F3-hCXCR3 (N-delta 4) membranes, 25 pM [125I] IP-10. The gist of the method:
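Membranes from mouse Ba/F3 pro-B cells stably expressing Flag-tagged human CXCR3 (N-delta 4) were coupled to SPA beads. IP-10 was added together with titrated compounds to start the reaction, and bound radioligand was read by scintillation proximity.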
In general terms: In a scintillation proximity assay essentially only radioactivity close to the scintillant gives light.
Regarding `O=C(NCc1ccc(Cl)cc1)c1cnc(N2CCN(C3CCN(Cc4ccc([N+](=O)[O-])cc4)CC3)CC2)c(Cl)c1` [compound 153], the 50% inhibitory concentration (IC50) (in general, the concentration that gives 50% inhibition) was in the range of 25 to 100 nM.
The molecule `O=C(NCc1ccc(F)c(Cl)c1)c1cnc(N2CCN(C3CCN(Cc4ccc(F)c(F)c4)CC3)CC2)c(Cl)c1` [compound 154] had an IC50 of 25 to 100 nM.
As for `O=C(NCc1ccc(Cl)cc1F)c1cnc(N2CCN(C3CCN(Cc4ccc([N+](=O)[O-])cc4)CC3)CC2)c(Cl)c1` [compound 155], the IC50 was 25 to 100 nM.
`O=C(NCc1ccc(F)c(Cl)c1)c1cnc(N2CCN(C3CCN(Cc4ccc(Cl)c(F)c4)CC3)CC2)c(Cl)c1` [compound 156]: the IC50 fell in the range of 25 to 100 nM.
As for `O=C(NCc1ccc(Cl)cc1)c1cnc(N2CCN(C3CCN(Cc4ccc(F)c(F)c4)CC3)CC2)c(Cl)c1` [compound 157], the figure is 25 to 100 nM; as for `O=C(NCc1ccc(F)c(Cl)c1)c1cnc(N2CCN(C3CCN(Cc4ccc([N+](=O)[O-])cc4)CC3)CC2)c(Cl)c1` [compound 158], 25 to 100 nM.
On to `CNC(=O)c1cnc(N2CCN(C3CCN(Cc4ccc(Cl)cc4)C(C)C3)[C@@H](C)C2)c(Cl)c1` (stereo partly drawn) [compound 159], for which the IC50 is 25 to 100 nM.
`CC[C@H]1CN(c2ncc(C(=O)NC(C)C)cc2Cl)CCN1C1CCN(C(=O)c2ccc(Cl)cc2)CC1` [compound 160] displayed an IC50 of 25 to 100 nM.
In turn, `O=C(NCc1ccc(Cl)cc1)c1cnc(N2CCN(C3CCN(Cc4ccc(Cl)c(F)c4)CC3)CC2)c(Cl)c1` [compound 161] came in with an IC50 of 25 to 100 nM.
The molecule `O=C(NCc1ccc(Cl)c(Cl)c1)c1cnc(N2CCN(C3CCN(Cc4ccc([N+](=O)[O-])cc4)CC3)CC2)c(Cl)c1` [compound 162] showed a concentration for half-maximal inhibition (IC50) of less than 25 nM.
In the case of `CCNC(=O)c1cnc(N2CCN(C3CCN(Cc4ccc(Cl)cc4)CC3(C)C)CC2)c(Cl)c1` (stereo not drawn) [compound 163] it was less than 25 nM; in that of `O=C(NCc1ccc(F)c(F)c1)c1cnc(N2CCN(C3CCN(Cc4ccc([N+](=O)[O-])cc4)CC3)CC2)c(Br)c1` [compound 164], less than 25 nM.
In the case of `O=C(NCCOc1ccccc1)c1cnc(N2CCN(C3CCN(Cc4ccc(-c5ccccc5)cc4)CC3)CC2)c(Cl)c1` [compound 165], the IC50 was more than 100 nM.
With `O=C(NCc1ccccc1Cl)c1cnc(N2CCN(C3CCN(Cc4ccc(Cl)cc4)CC3)CC2)c(Cl)c1` [compound 166], the IC50 was more than 100 nM.
In the case of `O=C(NCC1CC1)c1cnc(N2CCN(C3CCN(Cc4ccc(Cl)cc4)CC3)CC2)c(Cl)c1` [compound 167] it was more than 100 nM.
`O=C(NC1CCCC1)c1cnc(N2CCN(C3CCN(Cc4ccc(Cl)cc4)CC3)CC2)c(Cl)c1` [compound 168] gave a half-maximal inhibitory concentration (IC50) of more than 100 nM.
In turn, `O=C(NCCOc1ccccc1)c1cnc(N2CCN(C3CCN(Cc4ccc(OC(F)(F)F)cc4)CC3)CC2)c(Cl)c1` [compound 169] returned an IC50 of more than 100 nM.
With `O=C(NCc1ccc(F)c(F)c1)c1cnc(N2CC3CC2CN3C2CCN(Cc3ccc(Cl)cc3)CC2)c(Cl)c1` (stereo not drawn) [compound 170], the concentration for half-maximal inhibition (IC50) is more than 100 nM.
`CC(NC(=O)c1cnc(N2CCN(C3CCN(Cc4ccc(Cl)cc4)CC3)CC2)c(Cl)c1)c1ccc(Cl)cc1` (stereo not drawn) [compound 171] registered an IC50 of 25 to 100 nM.
As for `CC(c1ccc(C#N)cc1)N1CCC(N2CCN(c3ncc(C(=O)NCc4ccc(F)c(F)c4)cc3Cl)CC2)CC1` (stereo not drawn) [compound 172], the figure is more than 100 nM.
`C[C@@H]1CN(C2CCN(Cc3ccc(C#N)cc3)CC2)CCN1c1ncc(C(=O)NCc2ccc(Cl)c(Cl)c2)cc1Cl` [compound 173] displayed an IC50 of more than 100 nM.
Regarding `C[C@@H]1CN(C2CCN(Cc3ccc([N+](=O)[O-])cc3)CC2)CCN1c1ncc(C(=O)NCc2ccc(Cl)c(Cl)c2)cc1Cl` [compound 174], the IC50 lay in the range of 25 to 100 nM.
As for `C[C@H]1CN(C2CCN(Cc3ccc(Cl)cc3)CC2)CCN1c1ncc(C(=O)NCc2ccc(Cl)c(Cl)c2)cc1Cl` [compound 175], the IC50 was in the range of 25 to 100 nM.
The molecule `O=C(NCC1COc2ccccc2O1)c1cnc(N2CCN(C3CCN(Cc4ccc(Cl)cc4)CC3)CC2)c(Br)c1` (stereo not drawn) [compound 176] registered an IC50 of more than 100 nM.

For the origin of these results see US7776862B2, “Pyridyl and phenyl substituted piperazine-piperidines with CXCR3 antagonist activity” (Schering Corporation, priority 2005, dated 2010).
